The text below walks through data of ChEMBL document CHEMBL3286123, “Aliphatic phenolic ethers from Trichobotrys effusa” (2014).

The test system of this test is A549. In words: Growth inhibition of human A549 cells after 48 hrs by SRB assay. Conditions: A549, 48 h. The format is functional. In general terms: The SRB assay estimates cell density from bound dye.
Take `C/C=C/C=C/C=C(\CO)[C@H](OCc1c(O)cccc1CCC)[C@H](C)O`: halving of growth (GI50) required 25.6 µM.

Consider `C/C=C/C=C/C=C(\C=O)C(OCc1c(O)cccc1CCC)C(C)=O` (stereo unspecified), for which the GI50 (usually the concentration at which growth is held to half of that of the control) was found to be 19.3 µM.

In turn, `C/C=C/C=C/C=C1\[C@H](OC)O[C@](C)(OC)[C@H]1OCc1c(O)cccc1CCC` returned a GI50 of 16.2 µM.

As to `C/C=C/C=C/C=C1\CO[C@](C)(OC)[C@H]1OCc1c(O)cccc1CCC`, it took 24.3 µM to inhibit growth by half (GI50).

In turn, `O=c1[nH]cc(F)c(=O)[nH]1` [FLUOROURACIL] had a 50% growth inhibitory concentration (GI50) of 4.55 µM.

The compound `C[C@@H]1C[C@H]2O[C@@H]2/C=C\C=C\C(=O)Cc2c(Cl)c(O)cc(O)c2C(=O)O1` [RADICICOL] displayed a GI50 of 1.43 µM.
